Laboratory results reported in ChEMBL document CHEMBL4507305, “Data for DCP probe TP-024” (2021).

Columns and labels:
[1] = molecular target: Activin receptor type-2B (Homo sapiens) (UniProt Q13705); conditions: Compound concentration 1000.0 nM
[2] = molecular target: Atypical kinase COQ8A, mitochondrial (Homo sapiens) (UniProt Q8NI60); conditions: Compound concentration 1000.0 nM
[3] = test system: ALK tyrosine kinase receptor (Homo sapiens), Q9UM73 [L1196M]; conditions: Compound concentration 1000.0 nM
[4] = molecular target: Aurora kinase A (Homo sapiens) (UniProt O14965); conditions: Compound concentration 1000.0 nM
[5] = molecular target: Serine/threonine-protein kinase BRSK2 (Homo sapiens) (UniProt Q8IWQ3); conditions: Compound concentration 1000.0 nM
[6] = molecular target: Calcium/calmodulin-dependent protein kinase type 1 (Homo sapiens) (UniProt Q14012); conditions: Compound concentration 1000.0 nM
[7] = molecular target: Cyclin-dependent kinase 19 (Homo sapiens) (UniProt Q9BWU1); conditions: Compound concentration 1000.0 nM
[8] = molecular target: Cyclin-dependent kinase 5 (Homo sapiens) (UniProt Q00535); conditions: Compound concentration 1000.0 nM
[9] = molecular target: Megakaryocyte-associated tyrosine-protein kinase (Homo sapiens) (UniProt P42679); conditions: Compound concentration 1000.0 nM
[10] = molecular target: Serine/threonine-protein kinase DCLK3 (Homo sapiens) (UniProt Q9C098); conditions: Compound concentration 1000.0 nM
[11] = test system: Epidermal growth factor receptor (Homo sapiens), P00533 [UNDEFINED MUTATION]; conditions: Compound concentration 1000.0 nM
Epidermal growth factor receptor (Homo sapiens), P00533 [UNDEFINED MUTATION], sequence (P00533 whole entry, looked up, change not shown): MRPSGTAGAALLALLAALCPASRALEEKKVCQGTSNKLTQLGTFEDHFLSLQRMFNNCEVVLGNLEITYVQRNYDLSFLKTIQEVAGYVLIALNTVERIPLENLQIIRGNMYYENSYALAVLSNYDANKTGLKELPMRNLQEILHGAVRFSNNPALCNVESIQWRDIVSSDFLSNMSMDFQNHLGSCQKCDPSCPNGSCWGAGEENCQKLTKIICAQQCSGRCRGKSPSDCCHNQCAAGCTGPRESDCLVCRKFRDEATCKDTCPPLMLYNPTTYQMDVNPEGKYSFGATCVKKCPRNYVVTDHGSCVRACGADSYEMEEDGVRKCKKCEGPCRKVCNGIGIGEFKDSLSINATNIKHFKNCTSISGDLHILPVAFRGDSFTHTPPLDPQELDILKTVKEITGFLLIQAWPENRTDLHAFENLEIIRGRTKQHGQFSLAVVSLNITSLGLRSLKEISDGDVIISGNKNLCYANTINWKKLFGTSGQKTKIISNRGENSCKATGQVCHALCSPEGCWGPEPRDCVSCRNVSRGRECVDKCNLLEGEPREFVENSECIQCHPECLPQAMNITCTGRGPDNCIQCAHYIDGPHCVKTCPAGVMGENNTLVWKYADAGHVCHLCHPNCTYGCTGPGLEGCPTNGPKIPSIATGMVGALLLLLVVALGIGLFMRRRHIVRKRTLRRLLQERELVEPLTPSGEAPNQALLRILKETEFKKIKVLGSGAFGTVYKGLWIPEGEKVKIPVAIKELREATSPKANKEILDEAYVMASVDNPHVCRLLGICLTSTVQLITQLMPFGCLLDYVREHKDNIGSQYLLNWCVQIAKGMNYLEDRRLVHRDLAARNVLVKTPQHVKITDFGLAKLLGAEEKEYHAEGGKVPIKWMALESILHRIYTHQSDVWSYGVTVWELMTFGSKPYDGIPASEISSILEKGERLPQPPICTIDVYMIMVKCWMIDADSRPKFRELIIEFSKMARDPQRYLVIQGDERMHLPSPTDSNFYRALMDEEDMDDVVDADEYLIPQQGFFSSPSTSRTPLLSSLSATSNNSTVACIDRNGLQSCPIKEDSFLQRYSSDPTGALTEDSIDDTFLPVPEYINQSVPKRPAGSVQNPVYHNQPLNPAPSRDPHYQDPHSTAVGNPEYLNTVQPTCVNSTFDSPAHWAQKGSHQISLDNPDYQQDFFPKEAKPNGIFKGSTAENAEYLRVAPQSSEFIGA

[12] = test system: Epidermal growth factor receptor (Homo sapiens), P00533 [UNDEFINED MUTATION]; conditions: Compound concentration 1000.0 nM; remark: listed apart in the source
[13] = molecular target: Eukaryotic translation initiation factor 2-alpha kinase 1 (Homo sapiens) (UniProt Q9BQI3); conditions: Compound concentration 1000.0 nM
[14] = molecular target: Mitogen-activated protein kinase 3 (Homo sapiens) (UniProt P27361); conditions: Compound concentration 1000.0 nM
[15] = test system: Receptor-type tyrosine-protein kinase FLT3 (Homo sapiens), P36888 [UNDEFINED MUTATION]; conditions: Compound concentration 1000.0 nM
[16] = molecular target: Tyrosine-protein kinase Fyn (Homo sapiens) (UniProt P06241); conditions: Compound concentration 1000.0 nM
Tyrosine-protein kinase Fyn (Homo sapiens), sequence (P06241 2-537 limits assumed): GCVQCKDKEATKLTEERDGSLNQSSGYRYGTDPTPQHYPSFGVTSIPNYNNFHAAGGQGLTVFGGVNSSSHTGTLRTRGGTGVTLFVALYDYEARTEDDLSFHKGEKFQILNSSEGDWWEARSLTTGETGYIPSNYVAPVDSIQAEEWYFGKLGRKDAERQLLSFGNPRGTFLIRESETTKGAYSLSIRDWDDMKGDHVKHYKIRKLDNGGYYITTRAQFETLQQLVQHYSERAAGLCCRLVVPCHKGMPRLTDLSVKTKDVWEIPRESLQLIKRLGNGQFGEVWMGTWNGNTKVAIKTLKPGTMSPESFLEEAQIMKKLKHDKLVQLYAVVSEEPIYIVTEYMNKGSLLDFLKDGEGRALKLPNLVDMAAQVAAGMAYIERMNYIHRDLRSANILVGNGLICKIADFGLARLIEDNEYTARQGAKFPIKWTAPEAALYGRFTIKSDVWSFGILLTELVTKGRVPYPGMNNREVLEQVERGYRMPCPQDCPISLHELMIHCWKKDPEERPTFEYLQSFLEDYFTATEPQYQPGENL

[17] = molecular target: Serine/threonine-protein kinase haspin (Homo sapiens) (UniProt Q8TF76); conditions: Compound concentration 1000.0 nM
[18] = molecular target: Homeodomain-interacting protein kinase 3 (Homo sapiens) (UniProt Q9H422); conditions: Compound concentration 1000.0 nM
[19] = molecular target: Mitogen-activated protein kinase 8 (Homo sapiens) (UniProt P45983); conditions: Compound concentration 1000.0 nM
[20] = molecular target: Tyrosine-protein kinase Lck (Homo sapiens) (UniProt P06239); conditions: Compound concentration 1000.0 nM
[21] = molecular target: Mitogen-activated protein kinase kinase kinase kinase 2 (Homo sapiens) (UniProt Q12851); conditions: Compound concentration 1000.0 nM
[22] = molecular target: Mitogen-activated protein kinase kinase kinase kinase 3 (Homo sapiens) (UniProt Q8IVH8); conditions: Compound concentration 1000.0 nM
[23] = molecular target: MAP kinase-activated protein kinase 5 (Homo sapiens) (UniProt Q8IW41); conditions: Compound concentration 1000.0 nM
[24] = molecular target: Myosin light chain kinase (Homo sapiens) (UniProt Q32MK0); conditions: Compound concentration 1000.0 nM
[25] = molecular target: Serine/threonine-protein kinase PAK 4 (Homo sapiens) (UniProt O96013); conditions: Compound concentration 1000.0 nM
[26] = molecular target: Cyclin-dependent kinase 15 (Homo sapiens) (UniProt Q96Q40); conditions: Compound concentration 1000.0 nM
[27] = molecular target: Phosphorylase b kinase regulatory subunit alpha, liver isoform (Homo sapiens) (UniProt P46019); conditions: Compound concentration 1000.0 nM
[28] = molecular target: Serine/threonine-protein kinase pim-2 (Homo sapiens) (UniProt Q9P1W9); conditions: Compound concentration 1000.0 nM
[29] = molecular target: Serine/threonine-protein kinase PLK3 (Homo sapiens) (UniProt Q9H4B4); conditions: Compound concentration 1000.0 nM
[30] = molecular target: Serine/threonine-protein kinase D2 (Homo sapiens) (UniProt Q9BZL6); conditions: Compound concentration 1000.0 nM
[31] = molecular target: Protein-tyrosine kinase 2-beta (Homo sapiens) (UniProt Q14289); conditions: Compound concentration 1000.0 nM
Protein-tyrosine kinase 2-beta (Homo sapiens), sequence (Q14289 whole entry, looked up): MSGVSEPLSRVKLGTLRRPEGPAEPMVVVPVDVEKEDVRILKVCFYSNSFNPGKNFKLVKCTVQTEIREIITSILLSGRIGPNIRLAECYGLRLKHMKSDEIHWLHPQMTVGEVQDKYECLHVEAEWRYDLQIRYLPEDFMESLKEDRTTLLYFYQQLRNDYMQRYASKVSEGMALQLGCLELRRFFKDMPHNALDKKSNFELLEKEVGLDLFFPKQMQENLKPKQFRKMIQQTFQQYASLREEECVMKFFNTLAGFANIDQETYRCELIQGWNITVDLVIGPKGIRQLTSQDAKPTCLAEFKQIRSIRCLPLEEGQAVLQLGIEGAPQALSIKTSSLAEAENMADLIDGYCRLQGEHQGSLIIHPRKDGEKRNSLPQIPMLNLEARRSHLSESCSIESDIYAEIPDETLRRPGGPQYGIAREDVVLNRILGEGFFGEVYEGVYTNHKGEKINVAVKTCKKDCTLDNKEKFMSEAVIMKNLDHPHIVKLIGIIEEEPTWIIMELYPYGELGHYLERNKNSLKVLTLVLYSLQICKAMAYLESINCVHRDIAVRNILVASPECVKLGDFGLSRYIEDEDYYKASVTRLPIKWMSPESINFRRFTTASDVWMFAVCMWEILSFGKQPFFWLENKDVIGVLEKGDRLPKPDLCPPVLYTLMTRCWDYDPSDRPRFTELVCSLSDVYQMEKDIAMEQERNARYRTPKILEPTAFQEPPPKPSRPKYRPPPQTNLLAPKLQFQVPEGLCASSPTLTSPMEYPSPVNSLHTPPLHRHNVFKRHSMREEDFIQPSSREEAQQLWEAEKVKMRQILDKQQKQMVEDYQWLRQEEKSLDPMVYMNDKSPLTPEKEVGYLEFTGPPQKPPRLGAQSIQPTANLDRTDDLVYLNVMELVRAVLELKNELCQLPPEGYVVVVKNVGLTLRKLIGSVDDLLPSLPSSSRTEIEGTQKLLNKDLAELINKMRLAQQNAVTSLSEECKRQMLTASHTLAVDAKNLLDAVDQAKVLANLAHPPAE

[32] = molecular target: Receptor-interacting serine/threonine-protein kinase 1 (Homo sapiens) (UniProt Q13546); conditions: Compound concentration 1000.0 nM
[33] = molecular target: Receptor-interacting serine/threonine-protein kinase 2 (Homo sapiens) (UniProt O43353); conditions: Compound concentration 1000.0 nM
[34] = molecular target: Receptor-interacting serine/threonine-protein kinase 4 (Homo sapiens) (UniProt P57078); conditions: Compound concentration 1000.0 nM
[35] = molecular target: Ribosomal protein S6 kinase alpha-5 (Homo sapiens) (UniProt O75582); conditions: Compound concentration 1000.0 nM
Ribosomal protein S6 kinase alpha-5 (Homo sapiens), sequence (O75582 whole entry, looked up): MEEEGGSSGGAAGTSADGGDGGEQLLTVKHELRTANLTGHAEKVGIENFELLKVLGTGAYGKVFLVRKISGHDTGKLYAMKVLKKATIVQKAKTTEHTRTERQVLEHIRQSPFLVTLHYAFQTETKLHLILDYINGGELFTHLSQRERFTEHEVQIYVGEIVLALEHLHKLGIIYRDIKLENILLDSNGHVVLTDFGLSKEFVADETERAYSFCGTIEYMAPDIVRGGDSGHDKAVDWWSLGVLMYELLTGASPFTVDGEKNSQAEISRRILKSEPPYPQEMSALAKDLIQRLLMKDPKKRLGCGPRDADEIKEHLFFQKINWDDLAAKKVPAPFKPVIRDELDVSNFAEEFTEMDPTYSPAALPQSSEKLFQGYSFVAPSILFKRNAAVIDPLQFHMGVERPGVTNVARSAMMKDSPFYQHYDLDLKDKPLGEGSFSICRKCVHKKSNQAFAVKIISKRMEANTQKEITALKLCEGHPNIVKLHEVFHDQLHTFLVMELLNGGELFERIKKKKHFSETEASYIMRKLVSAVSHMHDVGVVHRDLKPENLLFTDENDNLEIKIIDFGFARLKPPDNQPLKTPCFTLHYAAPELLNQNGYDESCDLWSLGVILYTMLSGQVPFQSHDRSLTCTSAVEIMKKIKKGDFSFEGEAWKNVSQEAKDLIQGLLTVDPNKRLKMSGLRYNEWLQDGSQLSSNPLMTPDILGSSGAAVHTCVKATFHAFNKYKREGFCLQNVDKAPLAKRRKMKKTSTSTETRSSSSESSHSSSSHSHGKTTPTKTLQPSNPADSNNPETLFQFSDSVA

[36] = molecular target: Ribosomal protein S6 kinase alpha-1 (Homo sapiens) (UniProt Q15418); conditions: Compound concentration 1000.0 nM
[37] = molecular target: Ribosomal protein S6 kinase alpha-2 (Homo sapiens) (UniProt Q15349); conditions: Compound concentration 1000.0 nM
Ribosomal protein S6 kinase alpha-2 (Homo sapiens), sequence (Q15349 whole entry): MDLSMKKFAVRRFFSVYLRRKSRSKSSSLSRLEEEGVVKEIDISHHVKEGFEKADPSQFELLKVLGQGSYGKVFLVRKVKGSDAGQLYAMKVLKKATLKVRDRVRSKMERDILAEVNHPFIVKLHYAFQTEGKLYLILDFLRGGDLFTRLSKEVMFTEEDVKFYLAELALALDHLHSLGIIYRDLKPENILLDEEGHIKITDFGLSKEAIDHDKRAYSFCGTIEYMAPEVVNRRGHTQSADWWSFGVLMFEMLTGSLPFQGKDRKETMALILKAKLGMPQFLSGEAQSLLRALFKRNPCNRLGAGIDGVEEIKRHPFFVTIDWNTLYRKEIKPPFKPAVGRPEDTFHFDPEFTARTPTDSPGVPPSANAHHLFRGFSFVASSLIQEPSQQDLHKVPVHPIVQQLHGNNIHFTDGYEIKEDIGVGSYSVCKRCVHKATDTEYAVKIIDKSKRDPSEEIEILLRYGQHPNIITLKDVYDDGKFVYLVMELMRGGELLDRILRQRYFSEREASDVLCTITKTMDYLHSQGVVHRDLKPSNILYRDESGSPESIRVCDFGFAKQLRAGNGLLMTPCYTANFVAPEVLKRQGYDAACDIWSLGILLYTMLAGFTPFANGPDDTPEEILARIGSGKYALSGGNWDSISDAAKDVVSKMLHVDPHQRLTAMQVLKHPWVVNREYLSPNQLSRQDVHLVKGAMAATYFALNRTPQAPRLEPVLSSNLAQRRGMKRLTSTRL

[38] = molecular target: Ribosomal protein S6 kinase alpha-2 (Homo sapiens) (UniProt Q15349); conditions: Compound concentration 1000.0 nM; remark: listed apart in the source
[39] = molecular target: NT-3 growth factor receptor (Homo sapiens) (UniProt Q16288); conditions: Compound concentration 1000.0 nM
[40] = molecular target: Wee1-like protein kinase 2 (Homo sapiens) (UniProt P0C1S8); conditions: Compound concentration 1000.0 nM
Wee1-like protein kinase 2 (Homo sapiens), sequence (P0C1S8 whole entry, looked up): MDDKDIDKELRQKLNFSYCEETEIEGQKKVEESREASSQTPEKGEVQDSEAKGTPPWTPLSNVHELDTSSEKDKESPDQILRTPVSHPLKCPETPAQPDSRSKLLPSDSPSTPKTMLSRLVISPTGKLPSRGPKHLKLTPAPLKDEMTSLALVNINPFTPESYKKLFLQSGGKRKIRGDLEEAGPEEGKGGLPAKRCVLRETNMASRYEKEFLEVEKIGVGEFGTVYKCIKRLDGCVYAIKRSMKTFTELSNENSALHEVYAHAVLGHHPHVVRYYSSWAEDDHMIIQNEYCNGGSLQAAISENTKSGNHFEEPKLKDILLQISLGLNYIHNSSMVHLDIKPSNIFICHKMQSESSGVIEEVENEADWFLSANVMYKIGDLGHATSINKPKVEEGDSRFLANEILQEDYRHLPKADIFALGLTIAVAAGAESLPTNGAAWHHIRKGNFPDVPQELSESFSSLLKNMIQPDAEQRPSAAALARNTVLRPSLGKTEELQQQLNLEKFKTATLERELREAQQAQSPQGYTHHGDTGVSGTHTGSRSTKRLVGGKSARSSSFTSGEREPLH

[41] = molecular target: 5-hydroxytryptamine receptor 1A (Homo sapiens) (UniProt P08908); conditions: Compound concentration 10.0 uM
[42] = molecular target: Histamine H2 receptor (Homo sapiens) (UniProt P25021); conditions: Compound concentration 10.0 uM
[43] = molecular target: Beta-3 adrenergic receptor (Homo sapiens) (UniProt P13945); conditions: Compound concentration 10.0 uM
[44] = molecular target: GABA-A receptor; anion channel (Rattus norvegicus) (UniProt O09028+P15431+P18506+P18508+P19969+P20236+P23574+P23576+P28471+P28473+P30191+P62813+P63079+P63138+Q91ZM7+Q9ES14); conditions: Compound concentration 10.0 uM

Work on `Cc1cc(-n2nc(Cc3cc(F)cc(C(F)(F)F)c3)nc2C)ccc1C(N)=O` [TP-024] yielded a residual activity [1] of 100%, a residual activity [2] of 100% and a residual activity [3] of 100%. It also gave a residual activity [4] of 99%, a residual activity [5] of 77% and a residual activity [6] of 90%. The residual activity [7] was 88%, the residual activity [8] was 100% and the residual activity [9] was 100%. For the same compound, the residual activity [10] was 94%, the residual activity [11] was 100% and the residual activity [12] was 100%. The residual activity [13] was 100%, the residual activity [14] was 100% and the residual activity [15] was 100%. The residual activity [16] was 100%, the residual activity [17] was 100% and the residual activity [18] was 100%. It also gave a residual activity [19] of 78%, a residual activity [20] of 100% and a residual activity [21] of 100%. The residual activity [22] was 69%, the residual activity [23] was 100% and the residual activity [24] was 92%. It also gave a residual activity [25] of 100%, a residual activity [26] of 88% and a residual activity [27] of 100%. For the same compound, the residual activity [28] was 83%, the residual activity [29] was 100% and the residual activity [30] was 94%. For the same compound, the residual activity [31] was 100%, the residual activity [32] was 90% and the residual activity [33] was 100%. It also gave a residual activity [34] of 95%, a residual activity [35] of 88% and a residual activity [36] of 100%. For the same compound, the residual activity [37] was 100%, the residual activity [38] was 100% and the residual activity [39] was 94%. For the same compound, the residual activity [40] was 100%, the inhibition [41] was -4.42% and the inhibition [42] was 6.28%. For the same compound, the inhibition [43] was 4.48% and the inhibition [44] was 14.4%.

`Cc1nc(Cc2cccc(C(F)(F)F)c2)sc1-c1ccc(C(N)=O)nc1` [TP-024n] was tested, and the residual activity [1] was 86%, the residual activity [2] was 62% and the residual activity [3] was 100%. The residual activity [4] was 100%, the residual activity [5] was 72% and the residual activity [6] was 86%. For the same compound, the residual activity [7] was 98%, the residual activity [8] was 100% and the residual activity [9] was 100%. For the same compound, the residual activity [10] was 100%, the residual activity [11] was 0% and the residual activity [12] was 100%. For the same compound, the residual activity [13] was 100%, the residual activity [14] was 96% and the residual activity [15] was 100%. It also gave a residual activity [16] of 100%, a residual activity [17] of 100% and a residual activity [18] of 100%. For the same compound, the residual activity [19] was 90%, the residual activity [20] was 100% and the residual activity [21] was 100%. It also gave a residual activity [22] of 76%, a residual activity [23] of 100% and a residual activity [24] of 81%. For the same compound, the residual activity [25] was 96%, the residual activity [26] was 86% and the residual activity [27] was 100%. For the same compound, the residual activity [28] was 64%, the residual activity [29] was 94% and the residual activity [30] was 76%. It also gave a residual activity [31] of 100%, a residual activity [32] of 91% and a residual activity [33] of 100%. For the same compound, the residual activity [34] was 83%, the residual activity [35] was 83% and the residual activity [36] was 100%. For the same compound, the residual activity [37] was 95%, the residual activity [38] was 100% and the residual activity [39] was 69%. For the same compound, the residual activity [40] was 100%, the inhibition [41] was -2.04% and the inhibition [42] was 6.05%. It also gave an inhibition [43] of -1.63% and an inhibition [44] of 9.72%.
